Experimental data taken from ChEMBL document CHEMBL1201862, “PubChem BioAssay data set” (2004).
The source made the active and inactive calls.

Tests used:
[1] = target: Induced myeloid leukemia cell differentiation protein Mcl-1 (Homo sapiens, UniProt Q07820); type: functional
[2] = target: G-protein coupled receptor 55 (Homo sapiens, UniProt Q9Y2T6); experiment: selective activators of receptor GPR55 – imaging, U2OS cells, beta-arrestin-GFP redistribution, primary screen (AID 1961); type: functional
[3] = target: T1, Protein RecA (Mycobacterium tuberculosis, UniProt P9WHJ3); experiment: Fluorescence Cell-Free Homogeneous Dose Retest to Identify Inhibitors of RecA-Intein Splicing Activity. [Related pubchem assays (depositor defined):AID2097, AID2223, AID489010, AID492950]; type: functional
T1 sequence (P9WHJ3 whole entry): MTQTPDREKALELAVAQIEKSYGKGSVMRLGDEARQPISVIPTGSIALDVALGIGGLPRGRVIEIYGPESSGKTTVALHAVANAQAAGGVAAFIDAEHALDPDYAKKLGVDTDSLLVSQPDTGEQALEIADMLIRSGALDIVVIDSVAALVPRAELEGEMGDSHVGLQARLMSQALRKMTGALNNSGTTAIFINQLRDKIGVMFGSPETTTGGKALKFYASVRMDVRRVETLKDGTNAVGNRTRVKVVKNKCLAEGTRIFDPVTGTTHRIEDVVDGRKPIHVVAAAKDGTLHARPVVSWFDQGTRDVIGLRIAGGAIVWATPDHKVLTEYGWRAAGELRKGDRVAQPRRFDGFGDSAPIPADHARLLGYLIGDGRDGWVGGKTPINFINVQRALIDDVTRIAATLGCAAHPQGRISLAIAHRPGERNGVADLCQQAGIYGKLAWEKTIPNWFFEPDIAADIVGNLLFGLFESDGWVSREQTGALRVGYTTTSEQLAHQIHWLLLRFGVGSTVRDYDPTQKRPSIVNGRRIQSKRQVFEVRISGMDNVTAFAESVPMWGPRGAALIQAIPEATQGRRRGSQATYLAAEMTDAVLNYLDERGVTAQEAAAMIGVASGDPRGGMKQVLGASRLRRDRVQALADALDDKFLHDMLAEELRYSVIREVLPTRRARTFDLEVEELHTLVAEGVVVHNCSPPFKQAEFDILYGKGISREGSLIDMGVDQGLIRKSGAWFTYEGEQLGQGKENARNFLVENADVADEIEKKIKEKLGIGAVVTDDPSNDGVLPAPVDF

[4] = target: T2, Replicative DNA helicase DnaB (Mycobacterium tuberculosis, UniProt P9WMR3); experiment: DnaB intein splicing inhibitors, dose response, biochemical, cell-free fluorescence (AID 449749); type: functional
T2 sequence (P9WMR3 whole entry): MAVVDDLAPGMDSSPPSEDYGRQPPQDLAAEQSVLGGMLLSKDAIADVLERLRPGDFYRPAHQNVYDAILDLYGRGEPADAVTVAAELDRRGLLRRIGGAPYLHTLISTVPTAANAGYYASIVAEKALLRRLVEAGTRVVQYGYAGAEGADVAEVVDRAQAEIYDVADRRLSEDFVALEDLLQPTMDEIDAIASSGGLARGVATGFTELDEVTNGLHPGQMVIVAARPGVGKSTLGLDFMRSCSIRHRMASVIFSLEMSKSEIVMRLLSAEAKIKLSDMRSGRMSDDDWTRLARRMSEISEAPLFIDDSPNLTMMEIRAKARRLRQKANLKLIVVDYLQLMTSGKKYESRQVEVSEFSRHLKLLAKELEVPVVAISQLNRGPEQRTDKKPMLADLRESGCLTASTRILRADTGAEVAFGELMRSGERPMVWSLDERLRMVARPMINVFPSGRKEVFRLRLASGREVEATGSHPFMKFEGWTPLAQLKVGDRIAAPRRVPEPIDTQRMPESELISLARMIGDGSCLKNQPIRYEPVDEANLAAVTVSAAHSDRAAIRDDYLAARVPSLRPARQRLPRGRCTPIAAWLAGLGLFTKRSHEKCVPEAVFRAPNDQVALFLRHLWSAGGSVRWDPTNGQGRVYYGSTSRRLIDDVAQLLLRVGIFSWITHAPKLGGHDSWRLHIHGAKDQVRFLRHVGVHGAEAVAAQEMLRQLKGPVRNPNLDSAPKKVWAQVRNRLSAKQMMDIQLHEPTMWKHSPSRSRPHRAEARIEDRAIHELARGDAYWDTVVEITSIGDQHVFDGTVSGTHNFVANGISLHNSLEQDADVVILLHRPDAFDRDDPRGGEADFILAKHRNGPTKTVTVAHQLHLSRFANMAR

[5] = HEK-293T cell viability reduction – luminescence, B-cell screen hits, cytotoxicity control for BCR NF-kB inhibitor project, dose response (AID 489021); type: functional, cell-based;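 also: HEK-293T cells carrying an NF-kB luciferase reporter; cells exposed to compound for about 14 hours before viability readout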
[6] = target: Glyceraldehyde-3-phosphate dehydrogenase (Homo sapiens, UniProt P04406)
[7] = target: T3, Alkaline phosphatase, tissue-nonspecific isozyme (Homo sapiens, UniProt P05186); experiment: potency against alkaline phosphatase TNAP – biochemical, luminescent, dose response, SAR follow-up (AID 1056)
T3 sequence (P05186 whole entry): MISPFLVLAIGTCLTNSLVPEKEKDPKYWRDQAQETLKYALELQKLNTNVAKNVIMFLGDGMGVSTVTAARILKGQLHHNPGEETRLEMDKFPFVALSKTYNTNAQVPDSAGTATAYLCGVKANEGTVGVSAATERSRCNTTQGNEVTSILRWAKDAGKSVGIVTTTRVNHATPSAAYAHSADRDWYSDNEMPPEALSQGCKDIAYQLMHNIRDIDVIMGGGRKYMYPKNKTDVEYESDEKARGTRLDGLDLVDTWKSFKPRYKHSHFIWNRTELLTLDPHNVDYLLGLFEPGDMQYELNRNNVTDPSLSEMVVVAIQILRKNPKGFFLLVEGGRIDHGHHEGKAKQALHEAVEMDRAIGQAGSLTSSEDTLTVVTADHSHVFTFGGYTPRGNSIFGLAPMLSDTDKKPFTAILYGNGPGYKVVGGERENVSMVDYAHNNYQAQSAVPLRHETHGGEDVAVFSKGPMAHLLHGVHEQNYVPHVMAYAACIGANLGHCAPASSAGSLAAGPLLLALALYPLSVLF

[8] = viability of PTEN-deleted HCT116 cells – cell-based, HCT116 PTEN knockout, dose response (AID 1047); type: functional;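 also: HCT116 colon tumor cells with PTEN knocked out; cells exposed to compound for 60 hours before readout; potency for loss of cell viability measured by luminescence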
[9] = viability of HCT116 lacking mutant beta-catenin – cell-based, human colon tumor, dose response (AID 1045); type: functional;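 also: HCT116 colon tumor cells with beta catenin knocked out; cells exposed to compound for 60 hours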
[10] = target: Neurotensin receptor type 1 (Homo sapiens, UniProt P30989); type: functional;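 also: Image-based confirmatory dose-response assay measuring agonist activity at NTR1; NTR1-expressing U2OS osteosarcoma cells imaged for beta-arrestin GFP spot formation; agonist potency where compounds increase beta-arrestin recruitment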
[11] = target: T4, Bcl-2-like protein 10 (Homo sapiens, UniProt Q9HD36); experiment: Bcl-B/TR3 peptide binding disruption – biochemical, fluorescence polarization, FITC-TR3 peptide, selectivity assay for Bfl-1 inhibitor project, primary screen (AID 748);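 also: fluorescence polarization from a fluorescein-labelled TR3 peptide binding purified Bcl-B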
T4 sequence (Q9HD36 whole entry): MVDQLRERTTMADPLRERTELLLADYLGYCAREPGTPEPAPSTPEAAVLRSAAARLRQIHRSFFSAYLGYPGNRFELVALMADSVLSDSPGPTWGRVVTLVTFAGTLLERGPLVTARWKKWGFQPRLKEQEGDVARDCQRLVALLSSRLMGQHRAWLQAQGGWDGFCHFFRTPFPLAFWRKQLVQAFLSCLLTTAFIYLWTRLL

[12] = target: Prothrombin (Homo sapiens, UniProt P00734); experiment: Thrombin 1536 HTS Dose Response Confirmation. [Related pubchem assays: 1046 (Thrombin 1536 HTS; hits were confirmed in this assay)]; type: functional
[13] = cells; type: functional
[14] = HepG2 cell cytotoxicity, dose response, cytotoxicity control for non-replicating M. tuberculosis project (AID 489018); type: functional; settings: Mycobacterium tuberculosis
[15] = THP-1 cell cytotoxicity, dose response, cytotoxicity control for non-replicating M. tuberculosis project (AID 489025); type: functional
[16] = target: T5, Ubiquitin-conjugating enzyme E2 N (Homo sapiens, UniProt P61088); type: functional
T5 sequence (P61088 whole entry): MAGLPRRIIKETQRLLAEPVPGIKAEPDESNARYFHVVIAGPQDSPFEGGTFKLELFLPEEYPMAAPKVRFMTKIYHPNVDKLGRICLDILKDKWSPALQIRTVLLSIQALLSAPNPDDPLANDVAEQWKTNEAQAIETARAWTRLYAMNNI

[17] = target: T6, Bcl-2-related protein A1 (Mus musculus, UniProt Q07440); type: functional;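 also: confirmatory dose–response counterscreen on Bfl-1, used to check hits from a UBC13 polyubiquitin inhibitor campaign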
T6 sequence (Q07440 whole entry): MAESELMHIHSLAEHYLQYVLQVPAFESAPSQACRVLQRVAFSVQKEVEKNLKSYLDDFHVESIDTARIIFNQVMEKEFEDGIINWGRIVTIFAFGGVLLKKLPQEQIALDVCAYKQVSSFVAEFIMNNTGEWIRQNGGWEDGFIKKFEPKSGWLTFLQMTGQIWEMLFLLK

[18] = target: T5, Ubiquitin-conjugating enzyme E2 N; type: functional; remark: listed apart in the source
[19] = target: T7, Voltage-gated N-type calcium channel alpha-1B subunit/Amyloid beta A4 precursor protein-binding family A member 1 (Homo sapiens, UniProt Q00975+Q02410); type: protein assay
[20] = target: T7, Voltage-gated N-type calcium channel alpha-1B subunit/Amyloid beta A4 precursor protein-binding family A member 1; type: protein assay; remark: listed apart in the source
[21] = HPDE-C7 pancreatic duct cell viability loss – fluorescence, HTS (AID 430); type: functional, cell-based; settings: Homo sapiens
[22] = DRD fibroblast viability loss – cell-based, non-viral oncogenic, luminescence, dose response (AID 1934); type: functional; settings: Homo sapiens
[23] = Vero E6 cell cytotoxicity, dose response, cytotoxicity control for non-replicating M. tuberculosis project, secondary assay (AID 492998); type: functional, VeroE6; settings: Vero C1008
[24] = system: BJ; experiment: cells; type: functional, cell-based; settings: Homo sapiens
[25] = system: BJ; experiment: BJ-TERT fibroblast viability loss – cell-based, RAS-independent, luminescence, dose response (AID 1933); type: functional; settings: Homo sapiens
[26] = system: BJ; experiment: BJ-TERT-LT-ST fibroblast viability loss – cell-based, RAS-independent, luminescence, dose response (AID 1935); type: functional; settings: Homo sapiens;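 also: BJ fibroblasts immortalized with TERT plus LT and ST oncogenes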
[27] = viability loss of HPDE-C7K cells – cell-based, fluorescence, HTS, primary screen (AID 431); type: functional; settings: Homo sapiens

Sequence of G-protein coupled receptor 55 (Q9Y2T6 whole entry): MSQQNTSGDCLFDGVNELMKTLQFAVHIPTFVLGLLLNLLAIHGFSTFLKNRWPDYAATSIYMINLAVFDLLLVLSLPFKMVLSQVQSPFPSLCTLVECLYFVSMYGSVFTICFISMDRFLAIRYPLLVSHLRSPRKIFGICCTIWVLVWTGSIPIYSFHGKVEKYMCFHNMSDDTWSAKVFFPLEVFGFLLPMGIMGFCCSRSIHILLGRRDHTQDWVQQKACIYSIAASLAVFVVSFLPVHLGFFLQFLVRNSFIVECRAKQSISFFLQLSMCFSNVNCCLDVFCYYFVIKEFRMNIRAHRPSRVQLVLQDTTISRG
Sequence of Neurotensin receptor type 1 (P30989 whole entry): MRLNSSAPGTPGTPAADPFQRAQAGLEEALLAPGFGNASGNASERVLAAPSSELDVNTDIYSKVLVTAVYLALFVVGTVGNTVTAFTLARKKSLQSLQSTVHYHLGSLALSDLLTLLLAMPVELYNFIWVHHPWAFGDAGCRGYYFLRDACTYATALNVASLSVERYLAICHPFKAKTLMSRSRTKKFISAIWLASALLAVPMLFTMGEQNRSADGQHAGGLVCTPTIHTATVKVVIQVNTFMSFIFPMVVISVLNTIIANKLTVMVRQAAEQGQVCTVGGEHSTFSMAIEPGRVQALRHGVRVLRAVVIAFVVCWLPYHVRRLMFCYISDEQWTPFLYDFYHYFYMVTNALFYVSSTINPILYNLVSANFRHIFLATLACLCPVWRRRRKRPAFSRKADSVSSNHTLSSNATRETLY
T7 sequence (Q00975 whole entry): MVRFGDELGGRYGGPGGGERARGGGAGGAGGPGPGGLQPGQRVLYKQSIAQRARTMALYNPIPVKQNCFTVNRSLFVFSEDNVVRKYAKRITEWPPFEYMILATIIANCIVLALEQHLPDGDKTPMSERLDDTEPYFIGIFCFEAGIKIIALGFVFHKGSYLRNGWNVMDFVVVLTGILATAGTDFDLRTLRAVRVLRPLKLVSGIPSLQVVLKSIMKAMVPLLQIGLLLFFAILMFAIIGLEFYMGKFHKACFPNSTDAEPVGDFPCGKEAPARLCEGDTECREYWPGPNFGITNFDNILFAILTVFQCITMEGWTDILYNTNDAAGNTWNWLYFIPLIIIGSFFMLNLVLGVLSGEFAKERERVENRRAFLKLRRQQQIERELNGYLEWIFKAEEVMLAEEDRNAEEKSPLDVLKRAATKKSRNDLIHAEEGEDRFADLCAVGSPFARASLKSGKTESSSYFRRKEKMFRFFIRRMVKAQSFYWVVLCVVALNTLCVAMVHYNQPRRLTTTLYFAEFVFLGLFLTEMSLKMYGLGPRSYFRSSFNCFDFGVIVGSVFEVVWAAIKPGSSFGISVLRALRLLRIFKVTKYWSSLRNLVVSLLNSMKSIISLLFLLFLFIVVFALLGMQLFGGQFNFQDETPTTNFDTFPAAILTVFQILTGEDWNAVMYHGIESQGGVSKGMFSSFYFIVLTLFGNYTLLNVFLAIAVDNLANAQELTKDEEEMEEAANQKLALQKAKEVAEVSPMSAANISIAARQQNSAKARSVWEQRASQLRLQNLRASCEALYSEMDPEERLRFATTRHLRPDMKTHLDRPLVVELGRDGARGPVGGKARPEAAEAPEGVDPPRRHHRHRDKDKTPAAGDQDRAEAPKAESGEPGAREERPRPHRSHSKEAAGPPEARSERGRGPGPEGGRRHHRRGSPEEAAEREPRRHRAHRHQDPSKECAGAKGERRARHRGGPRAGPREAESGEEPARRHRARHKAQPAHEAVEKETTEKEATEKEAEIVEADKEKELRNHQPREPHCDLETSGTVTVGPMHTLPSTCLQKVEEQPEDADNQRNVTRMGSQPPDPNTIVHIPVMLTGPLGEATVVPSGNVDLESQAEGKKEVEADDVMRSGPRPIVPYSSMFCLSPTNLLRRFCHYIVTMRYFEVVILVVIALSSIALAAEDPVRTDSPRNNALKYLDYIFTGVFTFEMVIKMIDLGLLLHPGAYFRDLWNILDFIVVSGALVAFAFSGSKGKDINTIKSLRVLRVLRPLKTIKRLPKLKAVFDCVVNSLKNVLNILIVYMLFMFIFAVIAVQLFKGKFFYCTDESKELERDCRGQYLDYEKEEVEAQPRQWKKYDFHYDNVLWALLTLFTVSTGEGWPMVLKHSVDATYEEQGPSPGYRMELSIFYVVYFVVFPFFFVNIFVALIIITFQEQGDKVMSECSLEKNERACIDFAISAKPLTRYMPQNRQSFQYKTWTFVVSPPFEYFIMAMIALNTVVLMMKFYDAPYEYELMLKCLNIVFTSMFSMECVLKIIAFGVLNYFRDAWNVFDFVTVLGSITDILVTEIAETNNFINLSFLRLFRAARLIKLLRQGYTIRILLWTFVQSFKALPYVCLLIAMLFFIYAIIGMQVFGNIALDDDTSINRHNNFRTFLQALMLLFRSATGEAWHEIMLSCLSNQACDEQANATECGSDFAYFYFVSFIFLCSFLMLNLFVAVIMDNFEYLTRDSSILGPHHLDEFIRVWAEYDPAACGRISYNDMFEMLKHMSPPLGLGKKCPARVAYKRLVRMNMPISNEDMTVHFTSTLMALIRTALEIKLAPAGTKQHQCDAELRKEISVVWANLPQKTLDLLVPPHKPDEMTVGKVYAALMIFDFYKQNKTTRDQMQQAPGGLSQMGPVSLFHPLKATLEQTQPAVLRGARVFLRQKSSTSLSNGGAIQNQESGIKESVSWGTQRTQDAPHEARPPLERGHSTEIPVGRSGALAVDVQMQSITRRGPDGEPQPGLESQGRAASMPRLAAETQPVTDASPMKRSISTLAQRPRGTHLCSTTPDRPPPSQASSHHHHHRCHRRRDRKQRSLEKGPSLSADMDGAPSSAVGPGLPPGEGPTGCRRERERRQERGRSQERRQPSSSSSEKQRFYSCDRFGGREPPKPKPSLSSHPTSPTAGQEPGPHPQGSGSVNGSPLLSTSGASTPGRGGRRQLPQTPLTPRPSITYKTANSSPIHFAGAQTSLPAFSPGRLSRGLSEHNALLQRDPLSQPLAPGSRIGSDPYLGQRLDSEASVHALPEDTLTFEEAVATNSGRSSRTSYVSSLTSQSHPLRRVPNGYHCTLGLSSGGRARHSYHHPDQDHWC
T7 sequence (Q02410 whole entry): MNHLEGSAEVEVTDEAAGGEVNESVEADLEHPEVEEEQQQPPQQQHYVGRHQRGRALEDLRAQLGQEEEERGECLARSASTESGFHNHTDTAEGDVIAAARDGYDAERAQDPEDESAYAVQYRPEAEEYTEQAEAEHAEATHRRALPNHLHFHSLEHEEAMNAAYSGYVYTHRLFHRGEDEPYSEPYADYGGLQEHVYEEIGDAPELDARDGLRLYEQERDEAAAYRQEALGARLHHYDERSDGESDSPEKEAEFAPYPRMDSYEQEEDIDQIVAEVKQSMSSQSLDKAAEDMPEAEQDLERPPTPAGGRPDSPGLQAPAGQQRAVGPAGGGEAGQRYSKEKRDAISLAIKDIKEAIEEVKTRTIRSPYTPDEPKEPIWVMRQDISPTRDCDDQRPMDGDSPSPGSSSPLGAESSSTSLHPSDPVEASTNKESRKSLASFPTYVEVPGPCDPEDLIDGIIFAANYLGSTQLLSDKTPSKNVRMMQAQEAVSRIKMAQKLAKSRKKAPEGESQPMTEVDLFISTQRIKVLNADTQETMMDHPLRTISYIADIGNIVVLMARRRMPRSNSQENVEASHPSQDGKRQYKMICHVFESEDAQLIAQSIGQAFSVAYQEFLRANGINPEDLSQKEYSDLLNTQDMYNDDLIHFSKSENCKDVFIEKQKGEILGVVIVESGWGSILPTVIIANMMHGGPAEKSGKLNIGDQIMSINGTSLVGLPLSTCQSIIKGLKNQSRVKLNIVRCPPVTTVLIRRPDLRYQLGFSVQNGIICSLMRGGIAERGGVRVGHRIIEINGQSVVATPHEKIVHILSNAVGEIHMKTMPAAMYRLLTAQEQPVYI
Sequence of Induced myeloid leukemia cell differentiation protein Mcl-1 (Q07820 whole entry): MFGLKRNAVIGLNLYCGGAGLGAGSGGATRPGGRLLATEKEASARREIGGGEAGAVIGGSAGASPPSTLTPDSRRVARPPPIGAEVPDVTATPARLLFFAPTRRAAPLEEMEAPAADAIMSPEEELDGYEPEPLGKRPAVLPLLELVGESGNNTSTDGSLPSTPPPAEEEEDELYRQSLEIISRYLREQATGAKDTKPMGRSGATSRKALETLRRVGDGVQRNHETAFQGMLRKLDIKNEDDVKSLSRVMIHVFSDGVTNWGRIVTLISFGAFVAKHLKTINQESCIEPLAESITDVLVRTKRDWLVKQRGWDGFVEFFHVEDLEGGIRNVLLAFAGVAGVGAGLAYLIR
Sequence of Glyceraldehyde-3-phosphate dehydrogenase (P04406 whole entry): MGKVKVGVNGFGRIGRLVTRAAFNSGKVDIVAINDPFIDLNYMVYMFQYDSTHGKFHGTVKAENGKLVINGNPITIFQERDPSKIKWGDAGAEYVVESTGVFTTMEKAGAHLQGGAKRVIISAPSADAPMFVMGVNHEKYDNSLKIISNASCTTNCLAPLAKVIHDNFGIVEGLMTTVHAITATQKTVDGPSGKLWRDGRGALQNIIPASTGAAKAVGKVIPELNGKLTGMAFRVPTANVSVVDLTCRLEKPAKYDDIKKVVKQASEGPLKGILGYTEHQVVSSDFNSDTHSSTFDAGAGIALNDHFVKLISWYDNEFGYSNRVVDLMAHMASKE

## CCN(CC)C(=O)CC(c1cc(OC)c(OC)c(OC)c1)c1c(OC)cc(OC)c2c(-c3ccccc3)cc(=O)oc12 (centres undefined)
[1]
  IC50: 5.26 µM (active)
[2]
  EC50: 1.31 µM (active)

## COc1ccc(/C=C2/SC(=S)N(CCCC(=O)Nc3cccc(O)c3)C2=O)cc1
[3]
  EC50: > 380 µM (inactive)
[4]
  AC50: > 380 µM (inactive)
[5]
  IC50: 55.8 µM (inactive)

## COC(=O)c1cc(-c2ccc(F)cc2F)[nH]n1
[6]
  IC50: > 10 µM (inconclusive)
[7]
  IC50: 0.192 µM (active)

## CC(=O)Nc1cccc(C(=O)/C=C/c2ccc(Br)cc2)c1
[8]
  EC50: 3.77 µM (active)
[9]
  EC50: 3.18 µM (active)
[10]
  EC50: 13.3 µM (active)

## Nc1nc(-c2ccco2)nn1C(=O)CCc1ccccc1
[11]
  IC50: > 100 µM (inactive)
[12]
  IC50: 0.0191 µM (active)

## CCCc1cc(NCCCn2ccnc2)n2nc(C)c(-c3ccccc3)c2n1
[13]
  IC50: 29.1 µM (active)
[14]
  CC50: > 20 µM (active)
[15]
  CC50: 36.2 µM (active)

## CCOc1ccc(N(C(=O)c2snc(C(N)=O)c2N)C(C(=O)NCC2CCCO2)c2c[nH]c3ccccc23)cc1 (centres undefined)
[16]
  IC50: 11.1 µM (active)
[17]
  IC50: > 20 µM (inactive)
[18]
  IC50: 5.73 µM (active)

## CC1CCN(c2ccc(C(=O)O)cc2N)CC1
[11]
  IC50: 30.5 µM (active)

## CC(C)(C)OC(=O)N1CCC(NC(=O)c2[nH]cnc2C(=O)N[C@@H](Cc2ccccc2)C(=O)OCc2ccccc2)CC1
[10]
  EC50: 32.2 µM (inactive)

## COc1ccc(OC)c(C2CC(=O)Nc3cc(OC)c(OC)c(OC)c32)c1 (centres undefined)
[5]
  IC50: > 80 µM (inactive)

## CCc1cccc(CC)c1-n1c(SCC(=O)N2CCc3ccccc3C2)nnc1-c1cccnc1
[10]
  EC50: 4.16 µM (active)

## CCOC(=O)N1CCN(C(=O)c2ccc3c(c2)N(Cc2cc(C)ccc2C)C(=O)c2ccccc2[S+]3[O-])CC1 (centres undefined)
[2]
  EC50: 4.83 µM (active)

## CCN(c1ccc(N/C=C2/C(=O)N(Cc3ccc(OC)cc3)C(=O)c3ccccc32)cc1)C(C)C
[2]
  EC50: 2.01 µM (active)

## CCC(=O)Nc1ccc(Nc2nc(Cl)nc(Nc3ccc(NC(=O)CC)cc3)n2)cc1
[19]
  IC50: > 50 µM (inactive)
[20]
  IC50: 12.8 µM (active)

## O=C1CSC(=S)N1Cc1cccnc1
[21]
  EC50: 5.21 µM (active)
[13]
  IC50: 13.2 µM (active)
[22]
  EC50: 9.9 µM (active)
[23]
  CC50: 4.93 µM (active)
[24]
  EC50: 21.1 µM (active)
[25]
  EC50: 5.09 µM (active)
[26]
  EC50: > 150 µM (inconclusive)
[15]
  CC50: 3.69 µM (active)
[27]
  EC50: 3.72 µM (active)

## COC(=O)c1ccc(C(=O)NC2CC(C)(C)Cc3c2cnn3-c2ccc(F)cc2)nc1 (centres undefined)
[13]
  IC50: 6.8 µM (active)
[14]
  CC50: > 20 µM (active)
[23]
  CC50: 12.2 µM (active)
[15]
  CC50: 16.8 µM (active)
